# Columns and labels:
# protein biosynthesis = experiment: inhibition of protein biosynthesis; assay type: biochemical; settings: concentration of compound; read-out: Protein Synthesis (inhibition of protein biosynthesis)
# Source text: (§1) Initial results are shown in Table 2 for inhibition of protein biosynthesis (column 1), cytotoxicity (column 2), and anti-tumor activity (column 3) of tamandarin A, as compared to the related anti-tumor compound didemnin B. The results in Table 2 are given in units of concentration of the selected compound.
# [1] = test system: NCI-60 60 tumor cell line panel; experiment: cytotoxicity, NCI-60 tumor cell line panel mean; assay type: cell-based
# Procedure: as §1
# As used herein, “GI50” refers to the dose of a compound which is capable of producing 50% inhibition of cell growth. GI50 is assessed by comparing growth of cells to which a compound has been administered with growth of the same cells to which the compound has not been administered.
# As used herein, “LC50” refers to the dose of a compound which is capable of producing 50% lethality in cells. LC50 is assessed by comparing death of cells in a population of cells to which a compound has been administered with the death of cells in a population of the same cells to which the compound has not been administered.
# “NCI-60” refers to a 60 tumor cell line panel which from the National Cancer Institute (NCI, Frederick, MD). “NCI-60 Mean” is the average GI50 or LC50 for the panel treated with the selected compound.
# tumor = experiment: anti-tumor activity (Assay Mean); assay type: cell-based
# Source text: as §1
# pancreatic carcinoma = settings: cited from earlier work
Compound,IC50 (protein biosynthesis) [µM],"cytotoxicity compared with didemnin B ([1]; in vitro, assays of Table 2)","LC50 ([1]; mean over 60 tumor cell line panel, 50% lethality in cells) [µM]",Anti-tumor activity (Assay Mean) (tumor) [nM],in vitro activity against pancreatic carcinoma compared with didemnin B (pancreatic carcinoma)
tamandarin A,1.3,significantly less cytotoxic,4.8,1.31,greater in vitro activity
"CC[C@H](C)[C@H]1NC(=O)[C@@H](NC(=O)[C@@H](CC(C)C)N(C)C(=O)[C@@H]2CCCN2C(=O)C(C)O)[C@@H](C)OC(=O)[C@H](Cc2ccc(OC)cc2)N(C)C(=O)[C@@H]2CCCN2C(=O)[C@H](CC(C)C)NC(=O)[C@@H](C)C(=O)[C@H](C(C)C)OC(=O)C[C@@H]1O (stereo partly shown) [Didemnin B, reference compound]",4,–,–,1.58,–

# Source: patent US7122519B2, “Didemnin analogs and fragments and methods of making and using them” (priority 2000, dated 2006)
